Patent US10300091B2, “Sustained release angiogenesis modulating compositions and methods for induction and modulation of angiogenesis” (University of Florida Research Foundation, Inc., priority 2013, dated 2019)

Tested on: HUVEC
Assay: Screening of TSP-1 in hPE-based angiogenesis assay
Assay type: cell-based, human
Method: Unless otherwise stated, 32 μl of placental extract was thawed and pipetted into each well of a 96 well plate. The extract was evenly coated onto the bottom of each well using an orbital shaker at 30 RPM for 1 minute. The coated plate was then incubated at 37° C. for 30 minutes. HUVEC were then plating by direct pipetting at 20000 cells/cm^2, 40000 cells/cm^2, or 80000 cells/cm^2. Multiple time points were investigated at each concentration including at days 1, 3, and 5. Thrombospondin-1 was tested as an angiogenesis inhibiting drug using final concentrations 0, 5, 10, 20, and 35 μg/μL diluted in endothelial cell media
Network formation was analyzed after staining at a concentration of 2 μg/mL Calcein AM (Invitrogen-Life Technologies, NY, USA) with Endothelial cell culture media. In a dark room, dyed cells were incubated at 37° C., 5% CO2 for 30 minutes, and then images were taken using a Zeiss Axiovert 200 inverted Fluorescence microscope (Zeiss, Thornwood, N.Y.). Images were analyzed to determine the tubule length, tubule width, branch points, and other meshwork characterizations using ImageJ 1.45s (NIH, Bethesda, Md.). Branch points were assigned manually as the positions at every node where branches meet or tubules sprout, and tubule length was assessed by determining the curve length from branch point to connected branch point. Tubule width measurements were carried out in three different zones per tubule, with two zones each 10 μm from the start and end and one zone in the middle of the curve length. The percent area of coverage was determined by processing the images using the imageJ function “binary>>convert to mask” followed by measurement of the “mean.” In TSP-1 experiments, final values were normalized to no dose samples, calculated as the percentage of “1” values relative to the total count of pixel values, and given as “% area coverage”.

TSP-1: glycoprotein with potent inhibition activity on neovascularization; model anti-angiogenic drug
angiogenic network formation with TSP-1 (HUVEC on hPE treated plates, 1 d of culture): significantly reduced angiogenic network formation | total tubule-length and branch points as a function of TSP-1 concentration (hPE-coated plates, 0-35 μg/μL TSP-1): decrease linearly | effect of TSP-1 on control HUVECs (seeded directly onto uncoated tissue culture plates, 1 d): not affected
